This is an account of results in patent publication US12054509B2, “Antimicrobial compounds, compositions, and uses thereof” (Lakewood Amedex, Inc., priority 2017, dated 2024).

For series [1], the system named is E. coli. Briefly: MIC broth microdilution (CLSI) at incremental pH, E. coli. The format is cell-based. The note with it: Escherichia coli. As to the method: MIC testing is conducted using the broth (Mueller Hinton Broth) microdilution procedures relevant to each organism group as established by the Clinical and Laboratory Standards Institute (CLSI; 3-7). MIC plates are prepared in accordance with CLSI (3-7). To prepare the test plates, automated liquid handlers are used to conduct serial dilutions and liquid transfers. Automated liquid handlers utilized in this study include the Multidrop 384 (Labsystems, Helsinki, Finland) and the Biomek 2000 (Beckman Coulter, Fullerton CA). The solution is diluted to desired pH using 1 M Citric Acid or 1 M NaOH buffer. A standardized inoculum of each test organism is prepared per CLSI methods (3, 5-7) to equal a 0.5 McFarland standard in the appropriate media followed by an additional 1:20 dilution (1:10 for anaerobes).
The plates are then inoculated with 10 μL of the diluted 0.5 McFarland suspension using the Biomek 2000 from low to high drug concentration, resulting in a final concentration of approximately 5×10^5 CFU/mL per well. An un-inoculated plate is incubated for the purpose of assessing solubility of the drug in the test media. The plates are stacked 3 to 4 high, covered with a sterile lid on the top plate, and incubated for 18 to 24 hours according to CLSI. The MIC is recorded as the lowest concentration of respective compound that inhibited visible growth of the organism.
For orientation: In broth dilution the organism is exposed to a series of concentrations in liquid medium.

In series [2] the test system is P. aeruginosa. Description: MIC in lysogeny broth (LB) at pH 4. The format is cell-based. The note with it: Pseudomonas aeruginosa. As for the experimental part:
(§1) The MICs are also determined using lysogeny broth (LB) at pH 4 as the growth medium. Under these conditions, Nu-8 is active against E. coli and P. aeruginosa with MICs of 54 and 27 mg/mL, respectively.

In series [3] the test system is E. coli. Briefly: MIC in lysogeny broth (LB) at pH 4. The format is cell-based. The note with it: Escherichia coli. As for the experimental part:
as §1

Series [4] is described as follows: Solubility. The format is physicochemical. To be noted: unit inferred.
The test system of series [5] is wild type E. coli (ATCC 25922). Briefly: Bacterial cytological profiling at pH 4, 5.5, 7 (Example 8), E. coli. The format is cell-based. To be noted: pH 5.5 and 7. As for the experimental part: This bacterial cytological profiling (BCP) investigation uses methods and materials described previously by Nonejuie, P., Burkart, M., Poglianoa, K., Pogiano, J. (2013). Bacterial cytological profiling rapidly identifies the cellular pathways targeted by antibacterial molecules. Proc. Natl. Acad. Sci. U.S.A. 110(40):16169-16174. doi: 10.1073/pnas.1311066110.
For viable cell counts, cells are grown to OD600≈0.4 and diluted 1:1 into buffered or unbuffered media containing various compound concentrations. Samples are then collected and serially diluted (1:10) on a 96 well plate. Five microliters from each well are spotted on LB plates, incubated at 30° C., and viable cells are counted the next day.
Samples are collected at 10, 30, 120, and 240 min of exposure for viable cell count and imaging. For imaging, E. coli and S. aureus 200 μL of treated cells per time point are stained with 0.8 μg/mL FM4-64, 1.5 μg/mL DAPI, and 0.4 μM SYTOXGreen (Molecular Probes/Invitrogen). P. aeruginosa samples are stained 0.4 μM SYTOX Green, 28 μg/mL DAN, and 1 μg/mL FM 4-64. Cells are transferred to an agarose pad (20% LB, 1% agarose) for imaging.
For Nu-3 and Nu-8 stocks (at pH 4, 5.5 and 7), stock concentration is 500 mg/mL. For pH 4, the stocks are prepared by dissolving Nu-3 in 25 mM citrate buffer and Nu-8 in 350 mM citric acid. For pH 5.5, the stocks are prepared by dissolving Nu-3 in 25 mM citric-phosphate and Nu-8 in 25 mM critic. For pH 7, the stocks are prepared by dissolving Nu-3 and Nu-8 in 25 mM Sorensen phosphate buffer. 2×LB (lysogeny broth) solutions are prepared with 50 mM citrate buffer for pH 4, 50 mM citrate-phosphate buffer for pH 5.5, and 50 mM Sorensen phosphate buffer for pH 7.

For series [6], the system named is bacterial strains. Briefly: MIC at pH 3.5 in human and mouse urine. The format is cell-based. The source says: Bacterial strains evaluated in this study include Escherichia coli, Klebsiella spp, Serratia marcescens, Proteus mirabilis/vulgaris, Citrobacter spp, Providencia spp, Morganella morganii, Pseudomonas aeruginosa, Staphylococcus aureus (MRSA only), and Enterococcus faecalis. […]

Series [7] has as its system E. coli ATCC25922. Briefly: Urinary tract infection model in Sprague-Dawley rats, transurethral treatment (Example 12). The format is in vivo. To be noted: 60 min. As for the experimental part:
Female Sprague-Dawley rats (n=6/group) are intraurethrally infected with the pre determined inoculum size of E. coli. At the specified time following infection with (depending on the in vivo growth curve), the animals are anaesthetized (ketamine/xylazine) and treated by transurethral administration with neutral saline (group 1), saline pH 3.5 adjusted with phosphoric acid (group 2), test compound Nu-8 pH 3.5 at 103 and 207 mg/kg (groups 3 and 4, respectively). When adjusting pH, the volume of phosphoric acid added are monitored and the final concentration of the pH adjusted dose solution are subsequently determined. The goal is to have the final concentration after pH adjustment within 10% of the desired dose so the final concentration after pH adjustment are reported. Volume of administration will be 300 μL. TABLE 10 (Animal Challenge and Treatment Schedule) summarizes the study groups.
Two hours prior to each infection animals are water deprived. Each animal is infected twice with 24 hrs difference by transurethral administration of 300 μL of bacterial suspension under light ketamine and xylazine anaesthesia. Prior to infection, urine is evacuated by digital pressure, cannula is gently inserted into the bladder via urethra and 300 μL of bacterial suspension is inserted into the bladder. […]

One may read the MIC as the lowest concentration found to suppress growth. Read a low MIC as greater potency. As a reminder, the solubility is the dissolved amount per volume that the medium holds. Consider `CCCCOP(=O)(O)OC[C@H]1O[C@@H](n2ccc(N)nc2=O)C[C@@H]1OP(=O)(O)OCCCC` [Nu-8, sodium ((2R,3S,5R)-5-(4-amino-2-oxopyrimidin-1(2H)-yl)-3-((butoxyoxidophosphor-yl)oxy)tetrahydrofuran-2-yl)methyl butyl phosphate], for which the MIC in series [1] (pH 1) is 9.8 mg/mL; in series [1] (pH 3), 37.5 mg/mL; in series [1] (pH 4), 75 mg/mL; in series [1] (pH 5), greater than 75 mg/mL; in series [1] (pH 7), greater than 75 mg/mL; in series [2] it was 27 mg/mL. Further, the MIC in series [3] was found to be 54 mg/mL. The same molecule gave a solubility in series [4] of 137 mg/mL. The “effect on cell permeability, viability and growth” value in series [5] is “alters E. coli cell permeability and reduces cell viability and growth”. Moreover, in series [6], the “MICs in human and mouse urine” value is reported as “comparable to those of Nu-8 in Mueller Hinton broth”. Besides, the entries for the “mean CFU per mL of bladder tissue (tissue plus urine)” value in series [7] (103 mg/kg pH 3.5 transurethral) and in series [7] (207 mg/kg pH 3.5 transurethral) were 5.53 Log 10 CFUs/mL bladder tissue and 4.60 Log 10 CFUs/mL bladder tissue, respectively.
